From paper PMC8802628, “Selective activation of PFKL suppresses the phagocytic oxidative burst” (Cell, 2021)

Columns and labels:
GSDMD [1] = target: T1, GSDMD (Homo sapiens, UniProt P57764); assay: LPS-induced cleavage of GSDMD in monocytes (western blot); format: cell-based; design: endogenous in cells; host or cells: primary human monocytes electroporated with LPS; details: monocytes electroporated with LPS
T1 sequence (P57764 1-484): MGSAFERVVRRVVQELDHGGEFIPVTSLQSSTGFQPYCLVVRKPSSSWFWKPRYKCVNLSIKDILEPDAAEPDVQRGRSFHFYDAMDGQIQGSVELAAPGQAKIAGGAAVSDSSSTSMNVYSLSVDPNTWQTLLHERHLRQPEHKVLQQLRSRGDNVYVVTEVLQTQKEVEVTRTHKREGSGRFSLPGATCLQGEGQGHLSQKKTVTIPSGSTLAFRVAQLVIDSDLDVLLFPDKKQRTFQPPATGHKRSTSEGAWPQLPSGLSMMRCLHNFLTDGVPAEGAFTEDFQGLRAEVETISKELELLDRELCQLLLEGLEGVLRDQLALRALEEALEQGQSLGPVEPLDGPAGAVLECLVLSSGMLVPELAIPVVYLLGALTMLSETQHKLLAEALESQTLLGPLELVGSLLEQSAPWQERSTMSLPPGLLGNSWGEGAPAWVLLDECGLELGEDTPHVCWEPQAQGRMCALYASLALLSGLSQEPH
Protocol: LDH released into the culture medium was measured 1-3 h post-activation using a CellTox Green Cytotoxicity assay (Promega). IL-1β secretion was measured using a MSD Cytokine Assay, 96-well multi-array Tissue Culture Kit (Meso Scale Discovery). For immunoblotting, monocytes (2 × 10^6) were treated with 10-50 μM LCD7559 or 50 μM VX765 and electroporated with 25 μg/mL LPS using the NEON electroporation system. Cells were lysed after 1 h using lysis buffer (50 mM Tris pH 7.4, 150 mM NaCl, 10% glycerol, 1% NP-40, 1 mM MgCl and 1X Roche cOmplete protease inhibitor cocktail) and protein concentration was determined via BCA protein assay (Peirce). Antibodies for immunoblotting were GSDMD (L60, Cell Signaling Technologies), cleaved GSDMD-Asp275 (E7H9G, Cell Signaling Technologies) and GAPDH (14C10, Cell Signaling Technologies).

GSDMD [2] = target: T1, GSDMD; assay: Recombinant GSDMD cleavage by caspase-4; format: biochemical; details: 10 μM
Protocol: 1 μg recombinant GSDMD ([Aglietti et al., 2016]) was incubated with 10 μM LDC7559, 30 μM zVAD-fmk, or DMSO vehicle for 20 min, and then combined with 0.15 μg recombinant caspase-4 (750 mU; Abcam) in 20 μL of 50 mM HEPES, pH 7.2, 50 mM NaCl, 0.1% Chaps, 10 mM EDTA and 5% glycerol for 30 min at 37°C.

MEK or ERK = assay: PMA-induced MEK/ERK activation in neutrophils (western blot); format: cell-based, human
Protocol: Figure S3. Chemoproteomic analysis of covalent crosslinking using photolabeling probe PALP1, related to Figure 2
(A) Volcano plots of the fold change in peptides detected after afﬁnity pull-downs using PALP1 and PALP6. P values were calculated by Student’s t test across
three replicates. (B and C) Spectral counts of all PFKL (B) or TBB4B (C) peptides across replicates (left) or with individual peptides distinguished by color (right). (D)
Activity of recombinant NAMPT. Bars represent the mean ± s.d. of 3 independent experiments. (E) western blots of PMNs pretreated with 0.5 mM NA-11 or 1 mM
MEK1/2 inhibitor U0126 for 30 min, and then activated with 50 nM PMA for 30 min. Results are representative of 3 independent experiments.
(1 picture or pasted object on this page, not shown here)

PFKL = target: T2, PFKL (Homo sapiens, UniProt P17858); assay: Thermal inactivation assay of PFKL; format: biochemical; details: 35°C; 200 μM FBP, 200 nM NA-11
T2 construct: made in house; host or cells: Sf9 insect cells (baculovirus, Bac-to-Bac)
T2 sequence (P17858 1-780): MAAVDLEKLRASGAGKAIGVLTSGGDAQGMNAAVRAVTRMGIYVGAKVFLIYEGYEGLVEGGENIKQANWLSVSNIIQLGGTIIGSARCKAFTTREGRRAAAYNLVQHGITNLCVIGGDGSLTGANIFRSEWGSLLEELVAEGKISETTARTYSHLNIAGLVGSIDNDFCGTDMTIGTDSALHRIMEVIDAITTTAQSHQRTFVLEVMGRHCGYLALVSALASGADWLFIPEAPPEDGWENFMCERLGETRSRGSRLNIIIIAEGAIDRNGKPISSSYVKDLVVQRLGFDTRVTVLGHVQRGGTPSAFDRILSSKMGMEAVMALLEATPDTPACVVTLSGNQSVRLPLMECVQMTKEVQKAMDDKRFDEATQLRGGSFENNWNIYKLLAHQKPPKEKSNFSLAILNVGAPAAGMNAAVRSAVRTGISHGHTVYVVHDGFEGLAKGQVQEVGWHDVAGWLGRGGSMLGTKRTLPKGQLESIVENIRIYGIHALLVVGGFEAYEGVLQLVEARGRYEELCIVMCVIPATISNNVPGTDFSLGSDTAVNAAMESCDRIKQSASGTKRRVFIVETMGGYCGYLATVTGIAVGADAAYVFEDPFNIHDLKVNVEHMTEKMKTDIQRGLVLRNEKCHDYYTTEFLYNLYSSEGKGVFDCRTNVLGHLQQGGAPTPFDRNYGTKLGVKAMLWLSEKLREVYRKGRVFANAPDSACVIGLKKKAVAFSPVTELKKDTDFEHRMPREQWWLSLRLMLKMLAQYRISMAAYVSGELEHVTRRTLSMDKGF
Protocol: Thermal inactivation assays were performed as previously described for PFKP, with modifications to account for the decreased stability of PFKL ([Sánchez-Martínez et al., 2000]). PFKL was diluted to 10 ng/mL, with a final buffer composition of 53.3 mM HEPES, 100 mM KCl, 0.167 mM DTT, 83.3 μM ammonium sulfate, 0.83% glycerol, 0.170 mM ATP, and 16.7 mM EDTA. Samples were incubated at 35°C. At the times indicated, samples were removed and residual PFK1 activity measured using the PK/LDH auxiliary enzyme assay described above with 125 μM ATP and 5 mM F6P. To determine if small molecule ligands altered PFKL stability, 200 μM FBP and 200 nM NA-11 were added.

| Structure (SMILES) | LPS-induced cleavage of GSDMD (GSDMD [1]) | cleavage of recombinant GSDMD by caspase-4 (GSDMD [2]) | PMA-induced activation of MEK or ERK (MEK or ERK) | protection of PFKL from thermal inactivation (PFKL) |
| --- | --- | --- | --- | --- |
| COc1ccccc1-c1cc2n(n1)Cc1ccc(NC(C)=O)cc1OC2 [LDC7559, reference compound] | did not prevent LPS-induced cleavage of GSDMD | did not inhibit cleavage of recombinant GSDMD by caspase-4 | – | – |
| CC(=O)Nc1ccc2c(c1)OCc1cc(-c3ccccc3C#CCCCO)nn1C2 [NA-11] | – | – | did not perturb PMA-induced activation of MEK or ERK | did not |
